What is called MIC is the smallest concentration in the dilution series that meets the test's criterion for growth inhibition. Broadly, the IC50 is the point on the concentration scale where inhibition reaches its midpoint. As a reminder, the inhibition is how much of the control response was suppressed.

These results are taken from PMC12391994, “Synthesis of a fac-Tricarbonylrhenium(I) Complex with Pyrithione, Its Physicochemical Characterization, and Assessment of Biological Effects” (ACS Omega, 2025).

The nature of data set [1]: pH-dependent UV-vis spectrophotometry (solution speciation, pKa of aqua ligand). It counts as physicochemical. The source says:
However, at pH > ∼8, the spectrum changes considerably (Figure ).
The isosbestic point indicates a single equilibrium process, which is most likely deprotonation of the coordinated aqua ligand in complex 4a. This process was studied in our previous work for similar fac-[Re(CO)3] complexes formed with (N,N)-bearing ligands, and the calculated pK a (H2O) is around 8. […] Similar pK a values in the presence and absence of the chloride ions indicate a low chloride affinity of the aqua complex. Based on these values, the fraction of [Re(CO)3(pth)(H2O)] is 100% at pH = 7.4. The analogous half-sandwich complex [Ru(cym)(pth)(H2O)]^+ was also characterized by high solution stability, and a similarly high pK a value (10.34 (0.2 M KCl)).
For the solution studies, an Agilent Cary 3500 spectrophotometer was utilized to obtain UV–vis spectra in the wavelength range of 200–1100 nm. The path length ( l ) was 1 cm in all cases. The concentrations of the complex were between 10 and 60 μM. For investigation of the effect of chloride ions, the samples contained 60 μM complex and 0–7300 equiv of Cl^–. For HSA-containing samples, complex concentrations were 60 μM, and 0.5 equiv of biomolecule (or 6 equiv of MIM) was added for kinetic studies, respectively. Individual samples contained 0–34 μM HSA. The computer program HypSpec was used to obtain equilibrium constants.

Another data set addresses T1, cathepsin V (Homo sapiens, UniProt O60911).
T1 construct: made in house; host or cells: Pichia pastoris
Briefly: Relative inhibition of cathepsin V. It counts as biochemical. Particulars: for relative inhibition cathepsin V: 50 μM, substrate Z-Phe-Arg-AMC, pH 5.5. The text has this:
(§1) Relative inhibition is expressed as a percentage of the decrease in reaction velocity in the presence of an inhibitor, in comparison to the reaction velocity in the absence of an inhibitor. For that purpose, the specific fluorogenic substrates Z-Arg-Arg-7-amido-4-methylcoumarin (Z-Arg-Arg-AMC) and 2-aminobenzoyl (Abz)-Gly-Ile-Val-Arg-Ala-Lys-(Dnp)-OH were used for cathepsin B endopeptidase and exopeptidase activities, respectively, and Z-Phe-Arg-AMC was used for cathepsin L and V activities.
(§2) Human recombinant cathepsin B was expressed in E. coli, recombinant cathepsin V was expressed in Pichia pastoris, and human recombinant cathepsin L was expressed in E. coli, as reported. − For the determination of cathepsin B endopeptidase and exopeptidase activities, 100 mM phosphate buffer (pH 6.0) and 60 mM acetate buffer (pH 5.0) were used, respectively, and for the determination of cathepsin V and L activities, 100 mM acetate buffer (pH 5.5) was used. All buffers contained 0.1% PEG 8000 (Sigma-Aldrich, St. Louis, MO), 5 mM cysteine, and 1.5 mM EDTA. Prior to the assay, the enzymes were activated in the assay buffer for 5 min at 37 °C.
(§3) To determine the effect of inhibitors on enzyme activity, the following substrates were used: Z-Arg-Arg-AMC (final concentration 5 μM, Z-RR-AMC; Bachem, Bubendorf, Switzerland) for cathepsin B endopeptidase activity, Abz-Gly-Ile-Val-Arg-Ala-Lys-(Dnp)-OH (final concentration 1 μM, Abz-GIVRAK-(Dnp)-OH; Bachem) for cathepsin B exopeptidase activity, and Z-Phe-Arg-AMC (final concentration 2 μM, Z-FR-AMC; Bachem) for cathepsin V and L activity. The substrate ([…]) at a final concentration and inhibitor ([…]) at a concentration of 50 μM were added to the wells of a black microplate. The reaction was then initiated by adding 90 μL of activated enzyme (final concentrations: 5 nM cathepsin B for its endopeptidase activity, 0.5 nM cathepsin B for its exopeptidase activity, 2.5 ng/mL for cathepsin V, and 0.02 nM for cathepsin L) in the assay buffer. The formation of fluorescent degradation products during the reaction was continuously monitored at 460 ± 10 nm with excitation at 380 ± 20 nm for Z-Arg-Arg-AMC and Z-Phe-Arg-AMC and at 420 ± 10 nm with excitation at 320 ± 20 nm for Abz-Gly-Ile-Val-Arg-Ala-Lys(Dnp)-OH at 37 °C on a Tecan Infinite M1000 (Mannedorf, Switzerland) spectrofluorometer. All assay mixtures contained 5% (v/v) DMSO. To prevent false-positive inhibition due to the formation of compound aggregates, 0.01% Triton X-100 was used. All measurements were performed in triplicate and repeated twice. The relative inhibition was calculated using the following equation: relative inhibition (%) = 100(1 – v i/v o), where v i and v o designate the reaction velocities in the presence and absence of inhibitor, respectively.

Another data set concerns the target T2, cathepsin L (Homo sapiens, UniProt P07711).
T2 construct: made in house; host or cells: E. coli
Briefly: Relative inhibition of cathepsin L. It counts as biochemical. Particulars: for relative inhibition cathepsin L: 50 μM, substrate Z-Phe-Arg-AMC, pH 5.5.
Description: as §1, §2, §3

In data set [2] the target is T3, cathepsin B (exopeptidase activity) (Homo sapiens, UniProt P07858).
T3 construct: made in house; host or cells: E. coli
Briefly: Relative inhibition of cathepsin B exopeptidase activity. It counts as biochemical. The following applies: 50 μM; substrate Abz-Gly-Ile-Val-Arg-Ala-Lys-(Dnp)-OH; pH 5.0.
Description: as §1, §2, §3

Data set [3] concerns the target T4, cathepsin B (endopeptidase activity) (Homo sapiens, UniProt P07858).
T4 construct: made in house; host or cells: E. coli
Briefly: Relative inhibition of cathepsin B endopeptidase activity. Format: biochemical. Particulars: for relative inhibition cathepsin B endopeptidase: 50 μM, substrate Z-Arg-Arg-AMC, pH 6.0.
Description: as §1, §2, §3

The test system of data set [4] is S. aureus ATCC 25923. Briefly: Antibacterial MIC assay, S. aureus ATCC 25923. Format: cell-based, Staphylococcus aureus. The following applies: Staphylococcus aureus, ATCC25923; 18 h, visual inspection. The procedure: (§4) The antibacterial effect of the complex was tested against the Gram-negative strain Escherichia coli (E. coli) ATCC 25922, the Gram-positive reference strain Staphylococcus aureus (S. aureus) ATCC 25923, and the methicillin-resistant S. aureus MRSA ATCC 43300 strain. MRSA strains are responsible for several difficult-to-treat hospital-acquired infections.
(§5) The following bacterial strains were used in our experiments: Gram-positive S. aureus American Type Culture Collection (ATCC) 25923 as the methicillin-susceptible reference bacterial strain; methicillin-resistant S. aureus ATCC 43300 (MRSA) strain; E. coli ATCC 25922 as a Gram-negative bacterial strain.
(§6) MIC values of the complexes were determined in 96-well plates based on the Clinical and Laboratory Standard Institute guidelines (CLSI guidelines). The stock solutions of the compound (dissolved in DMSO at 5 mM concentration) were diluted in 100 μL of Mueller Hinton Broth. Then, 10^–4 dilution of an overnight bacterial culture in 100 μL of medium was added to each well, with the exception of the medium control wells.

Another data set deals with E. coli ATCC 25922. Briefly: Antibacterial MIC assay, E. coli ATCC 25922. Format: cell-based, Escherichia coli. The following applies: Escherichia coli, ATCC25922, 18 h, read-out: MIC E. coli ATCC 25922. The procedure:
as §4, §5, §6

Another data set concerns Colo205 cells. Briefly: MTT cytotoxicity assay, Colo205. Format: cell-based, human. The following applies: Homo sapiens, read-out: IC50 Colo205. On the procedure:
(§7) Its cytotoxicity was determined in the human HeLa cervical cancer cell line, the drug-sensitive Colo205 and its resistant counterpart, the ABCB1 expressing Colo320 colon adenocarcinoma cancer cell lines, using the colorimetric 3-(4,5-dimethylthiazol-2-yl)-2,5-diphenyltetrazolium bromide (MTT) test. To investigate the selectivity toward cancer cells, the noncancerous fibroblast CCD-19Lu cell line was included.
Drug-sensitive Colo205 (ATCC-CCL-222) and ABCB1 (MDR1)-LRP expressing and doxorubicin-resistant Colo320/MDR-LRP (ATCC-CCL-220.1) human colonic adenocarcinoma cell lines were purchased from LGC Promochem (Teddington, U.K.). The cells were cultured in RPMI 1640 medium supplemented with 10% heat-inactivated fetal bovine serum, 2 mM L-glutamine, 1 mM Na-pyruvate, and 10 mM HEPES.
(§8) The tested compound was dissolved in DMSO to prepare a 5 mM stock solution, which was diluted in complete culture medium, to study the effect of compounds on cell growth of human colonic adenocarcinoma cell lines. Doxorubicin was used as the positive control. The cells were treated with a trypsin-versene (EDTA) solution. Cells were adjusted to a density of 1 × 10^4 cells in 100 μL of the appropriate culture medium and were added to each well, with the exception of the medium control wells. Except for the semiadherent Colo205 and Colo320 cell lines, the other adherent cell lines were seeded 24 h prior to the assay. Then, stock solutions were diluted in the appropriate culture medium, and 2-fold serial dilutions of compounds were prepared in 100 μL of the medium, horizontally. The final volume of the wells containing compounds and cells was 200 μL. The plates were incubated at 37 °C for 72 h; at the end of the incubation period, 20 μL of MTT solution (from a stock solution of 5 mg/mL) was added to each well. […] Cell growth was determined by measuring the optical density (OD) at 540/630 nm with a Multiscan EX ELISA reader (Thermo Labsystems, Cheshire, WA). […]
In general terms: Tetrazolium dyes change colour on reduction, which living cells bring about.

Data set [5] has as its system S. aureus MRSA ATCC 43300. Briefly: Antibacterial MIC assay, S. aureus MRSA ATCC 43300. It counts as cell-based, Staphylococcus aureus. The following applies: Staphylococcus aureus, 18 h, read-out: MIC S. aureus MRSA ATCC 43300. The procedure: as §4, §5, §6
Another data set concerns CCD-19Lu cells. Briefly: MTT cytotoxicity assay, CCD-19Lu. It counts as cell-based, human. The following applies: Homo sapiens, CCD 19Lu, 72 h incubation, noncancerous fibroblast. On the procedure: as §7
as §8, with “horizontally.” for “horizontally. The final volume of the wells containing compounds and cells was 200 μL. The plates were incubated at 37 °C for 72 h; at the end of the incubation period, 20 μL of MTT solution (from a stock solution of 5 mg/mL) was added to each well.”

The subject of another data set is HSV-2. Further details: method as in our previous work. Particulars: ref our previous work; cited from earlier work.
Data set [6] deals with T5, human serum albumin (HSA) (Homo sapiens, UniProt P02768).
T5 construct: purchased Sigma-Aldrich/Merck A8763
Particulars: reported value for similar complex; cited from earlier work.

The subject of data set [7] is S. aureus ATCC 25923. Further details: method as in our previous work. Particulars: only on S. aureus strain; ref our previous work; cited from earlier work.

Where two headings read alike, the source gives them in different places.

T2 sequence (P07711 114-333): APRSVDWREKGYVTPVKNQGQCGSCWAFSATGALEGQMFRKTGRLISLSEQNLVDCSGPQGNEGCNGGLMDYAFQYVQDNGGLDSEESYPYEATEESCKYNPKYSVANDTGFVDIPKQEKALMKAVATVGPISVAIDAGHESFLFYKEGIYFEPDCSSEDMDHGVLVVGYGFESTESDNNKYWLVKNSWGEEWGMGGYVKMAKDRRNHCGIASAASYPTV
T1 sequence (O60911 114-334): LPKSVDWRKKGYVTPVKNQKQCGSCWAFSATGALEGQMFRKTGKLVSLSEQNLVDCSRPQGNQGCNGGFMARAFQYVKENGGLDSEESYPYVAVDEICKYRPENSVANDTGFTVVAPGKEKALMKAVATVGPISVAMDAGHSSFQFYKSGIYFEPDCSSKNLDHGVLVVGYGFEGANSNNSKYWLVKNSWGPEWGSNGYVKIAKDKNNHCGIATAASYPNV
T5 sequence (P02768 25-609): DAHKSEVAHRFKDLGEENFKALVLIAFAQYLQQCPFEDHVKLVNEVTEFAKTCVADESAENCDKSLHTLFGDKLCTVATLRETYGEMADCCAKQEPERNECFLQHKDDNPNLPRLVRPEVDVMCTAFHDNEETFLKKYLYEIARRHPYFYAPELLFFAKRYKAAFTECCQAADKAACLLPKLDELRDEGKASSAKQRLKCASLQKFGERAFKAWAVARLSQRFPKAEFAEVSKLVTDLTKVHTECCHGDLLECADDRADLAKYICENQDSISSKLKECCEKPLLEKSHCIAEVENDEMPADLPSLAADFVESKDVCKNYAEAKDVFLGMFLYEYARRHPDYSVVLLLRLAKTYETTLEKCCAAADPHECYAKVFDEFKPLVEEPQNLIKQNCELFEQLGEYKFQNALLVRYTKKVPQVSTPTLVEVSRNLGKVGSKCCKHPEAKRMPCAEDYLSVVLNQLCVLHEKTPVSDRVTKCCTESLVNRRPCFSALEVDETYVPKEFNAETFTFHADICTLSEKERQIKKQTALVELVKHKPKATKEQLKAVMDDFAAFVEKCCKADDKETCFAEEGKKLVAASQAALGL

As to [Re(CO)3(pth)(H2O)] [complex 4a], the “pKa (deprotonation of coordinated aqua ligand)” value in [1] (0.1 M KCl, 25.0 °C) is on record as 10.27 ± 0.01; in data set [1] (0.1 M KNO3), 10.15 ± 0.01. In addition, in [1] (pH = 7.4, based on the pKa values), the “fraction of aqua complex” value came to 100%.
For zinc pyrithione, the “relative inhibition cathepsin V” value on cathepsin V came out at 1.9 ± 3.0%. Also, the “relative inhibition cathepsin L” value on cathepsin L is 1.3 ± 2.4%. Also, the “relative inhibition cathepsin B exopeptidase” value in data set [2] amounted to 11.1 ± 2.2%. In data set [3], the “relative inhibition cathepsin B endopeptidase” value worked out at 8.7 ± 2.2%.
As for `N#Cc1ccccc1` [benzonitrile, reference compound], the MIC (in the data set on S. aureus ATCC 25923 [4]; with E. coli ATCC 25922; in data set [5]) was more than 100 µM each time. Also, the IC50 with Colo205 cells (COLO 205, 72 h) was more than 100 µM.
With `COc1cccc2c1C(=O)c1c(O)c3c(c(O)c1C2=O)C[C@@](O)(C(=O)CO)C[C@@H]3O[C@H]1C[C@H](N)[C@H](O)[C@H](C)O1` [doxorubicin, reference compound], the IC50 in the data set on Colo205 cells (COLO 205, 72 h incubation, MTT) is 0.584 ± 0.055 µM; with CCD-19Lu cells, 0.244 ± 0.026 µM.
With `Cc1ccc(C(C)C)cc1.[Cl-].[O-][n+]1ccccc1[S-].[Ru+2]` [[Ru(cym)(pth)Cl], [ruthenium(η^6-p-cymene)(pyrithionato)(chlorido)]], the “relative inhibition cathepsin V” value on cathepsin V was determined as 1.7 ± 5.7%. Moreover, in the data set with HSV-2, the “inhibition of growth of the HSV-2 virus” value was “did not inhibit the growth of the HSV-2 virus”. In addition, the “relative inhibition cathepsin L” value at cathepsin L is 1.5 ± 1.5%. The “log KQ quenching constant” value in [6] is 5.81. In addition, the “relative inhibition cathepsin B exopeptidase” value in [2] was determined as 5.4 ± 7.2%. The “relative inhibition cathepsin B endopeptidase” value in [3] worked out at 9.4 ± 1.8%. Also, in the data set on S. aureus ATCC 25923 [7], the “MIC S. aureus strain” value was 50 µM.
On to `[O-][n+]1ccccc1S` [pthH, Pyrithione], for which the inhibition at 50 µM at cathepsin V (pH 5.5, read-out: relative inhibition cathepsin V) came out at 2.3 ± 3.2%; on cathepsin L (pH 5.5, read-out: relative inhibition cathepsin L) it was 0.5 ± 1.9%; in [3] (pH 6, read-out: relative inhibition cathepsin B endopeptidase) it was 4.3 ± 2.3%. In addition, the “relative inhibition cathepsin B exopeptidase” value in [2] is “n.i. ^a”.
Regarding `[C-]#[O+].[C-]#[O+].[C-]#[O+].[C-]#[O+].[C-]#[O+].[Cl][Re]` [[Re(CO)5Cl], rhenium(I) pentacarbonyl chloride], on cathepsin V, the “relative inhibition cathepsin V” value is given as 4.6 ± 0.3%. For the same compound, the “relative inhibition cathepsin L” value at cathepsin L was 1.6 ± 6.5%. In addition, the “relative inhibition cathepsin B exopeptidase” value in [2] is given as 12.2 ± 3.0%. In data set [3], the “relative inhibition cathepsin B endopeptidase” value stood at 6.7 ± 0.7%.
